From paper PMC6158578, “Optimization and Lead Selection of Benzothiazole Amide Analogs Toward a Novel Antimycobacterial Agent” (Frontiers in Microbiology, 2018)
In brackets after ≈: the same amount, converted by molar mass. Like-named read-outs stand apart in the source and are kept apart here.

Columns and labels:
M. abscessus 1 = assay: MIC in MHB versus 7H9+OADC; type: cell-based
[1] = type: cell-based; conditions: for Interpretation of checkerboard synergy testing: antibiotic in combination with CRS400393 (benzothiazole amides)
[2] = test system: M. fortuitum (n = 11) clinical isolates; assay: MIC against rapid-growing NTM clinical isolates; type: cell-based; conditions: for MIC90: Mycolicibacterium fortuitum
M. abscessus 79 = assay: MIC in MHB versus 7H9+OADC; type: cell-based
[3] = test system: M. abscessus (n = 20) clinical isolates; assay: MIC against rapid-growing NTM clinical isolates; type: cell-based; conditions: for MIC90: Mycobacteroides abscessus
[4] = test system: M. chelonae (n = 11) clinical isolates; assay: MIC against rapid-growing NTM clinical isolates; type: cell-based; conditions: for MIC90: Mycobacteroides chelonae
M. abscessus 21 = assay: MIC in MHB versus 7H9+OADC; type: cell-based
Other NTM (n = 12) = assay: MIC against rapid-growing NTM clinical isolates; type: cell-based
M. intracellulare 1956 = assay: MIC, Middlebrook medium (7H9 + OADC, 7 days); type: cell-based; conditions: Mycobacterium intracellulare, 1956, 168 h
M. chimaera 1502055 = assay: MIC, Middlebrook medium (7H9 + OADC, 7 days); type: cell-based; conditions: 1502055, 168 h
M. chelonae 93 = assay: MIC, broth microdilution with resazurin (MHB, 3 days); type: cell-based; conditions: Mycobacteroides chelonae, 93
P. aeruginosa ATCC 35151 = assay: MIC, spectrum of activity; type: cell-based; conditions: Pseudomonas aeruginosa, ATCC35151
S. pneumoniae ATCC 49619 = assay: MIC, spectrum of activity; type: cell-based; conditions: Streptococcus pneumoniae, ATCC49619
[5] = test system: M. abscessus massiliense 119; assay: MIC, broth microdilution with resazurin (MHB, 3 days); type: cell-based; conditions: Mycobacteroides abscessus
CYP3A = assay: CYP inhibition in human liver microsomes; type: in vitro ADME
Method: (§1) ADMET assays were performed through NIAID Preclinical Services and Eurofins. Potential for cytotoxicity was monitored in HepG2 cells after 72 h growth in the presence of test compounds, either prepared as 10-point 3-fold serial dilutions or at a fixed 10 μM concentration. Cell viability was measured using the CellTiter-Glo® Luminescent Cell Viability Assay (Promega) or via fluorescent image analysis. Cytotoxicity was expressed as IC50 or as percent reduction of viable cells relative to a reference compound. Metabolic stability of compounds was evaluated via incubation with human liver microsomes at 37°C and quantitative analysis of parent compound by LC-MS/MS in samples removed at 0, 5, 15, 30, and 45 min (Obach, [1999]). For cytochrome P450 (CYP) inhibition assays, compounds were prepared as a 7-point dilution series and incubated with human liver microsomes in buffer containing 2 mM NADPH and probe substrate. […] Thermodynamic solubility of compounds in aqueous media was determined by incubation in 50 mM potassium phosphate buffer (pH 7.4) for 24 h, followed by HPLC-UV detection of compound in the filtrate (Analiza, Cleveland, OH, United States).

CYP2B6 = target: T1, CYP2B6 (Homo sapiens, UniProt P20813); assay: CYP inhibition in human liver microsomes; type: in vitro ADME
T1 construct: incubated with human liver microsomes in buffer containing 2 mM NADPH and probe substrate; from tissue; host or cells: human liver microsomes
T1 sequence (P20813 1-491): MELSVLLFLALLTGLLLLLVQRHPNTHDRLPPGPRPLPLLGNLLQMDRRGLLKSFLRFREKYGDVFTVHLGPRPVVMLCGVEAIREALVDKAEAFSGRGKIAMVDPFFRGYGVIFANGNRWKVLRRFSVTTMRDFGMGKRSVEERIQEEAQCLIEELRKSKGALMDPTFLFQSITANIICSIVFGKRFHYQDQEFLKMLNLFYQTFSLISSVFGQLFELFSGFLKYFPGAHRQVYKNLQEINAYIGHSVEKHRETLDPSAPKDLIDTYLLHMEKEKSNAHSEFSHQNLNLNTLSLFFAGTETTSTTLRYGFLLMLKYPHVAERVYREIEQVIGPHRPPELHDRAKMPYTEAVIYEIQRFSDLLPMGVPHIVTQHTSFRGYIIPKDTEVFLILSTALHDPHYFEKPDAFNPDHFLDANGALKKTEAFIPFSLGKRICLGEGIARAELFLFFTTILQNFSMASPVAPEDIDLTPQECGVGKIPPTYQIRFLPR
Method: as §1

[6] = test system: M. tuberculosis H37Rv mc^2 6206; assay: microbe, parasite or virus in culture; type: cell-based; conditions: Mycobacterium tuberculosis, 168 h
[7] = test system: M. peregrinum ATCC 700686; assay: MIC, broth microdilution with resazurin (MHB, 3 days); type: cell-based; conditions: Mycolicibacterium peregrinum, ATCC700686
M. abscessus ATCC 19977 = assay: as above; type: cell-based; conditions: Mycobacteroides abscessus, ATCC19977
[8] = test system: E. coli ATCC 25922 + PMBN (permeabilized); assay: MIC, spectrum of activity; type: cell-based; conditions: Escherichia coli, ATCC25922
M. avium 101 = assay: MIC, Middlebrook medium (7H9 + OADC, 7 days); type: cell-based; conditions: Mycobacterium avium, 101, 168 h
physchem = type: physicochemical; conditions: pH 7.4, aqueous buffer, thermodynamic from solid
Method: as §1

C. albicans ATCC 10231 = assay: MIC, spectrum of activity; type: cell-based; conditions: Candida albicans, ATCC10231
S. pyogenes ATCC 19615 = assay: MIC, spectrum of activity; type: cell-based; conditions: Streptococcus pyogenes, ATCC19615
HepG2 cytotoxicity, 72 h = type: cell-based; conditions: human, HepG2 cells, HepG2, 72 h, read-out: HepG2 cytotox., IC50
Method: as §1

[9] = 50% complement-inactivated human serum
[10] = test system: E. coli tolC CGSC 5633 (efflux mutant strain); assay: microbe, parasite or virus in culture; type: cell-based; conditions: Escherichia coli
E. faecalis ATCC 29212 = assay: MIC, spectrum of activity; type: cell-based; conditions: Enterococcus faecalis, ATCC29212
S. aureus ATCC 29213 = assay: MIC, spectrum of activity; type: cell-based; conditions: Staphylococcus aureus, ATCC29213
M. fortuitum 41 = assay: MIC, broth microdilution with resazurin (MHB, 3 days); type: cell-based; conditions: Mycolicibacterium fortuitum, 41
[11] = M. abscessus 1, 7H9 + OADC (5 mg/mL albumin)
[12] = antibiotic in checkerboard combination with CRS400393
[13] = M. fortuitum (n = 11), read-out: MIC90
[14] = M. abscessus 79, 7H9 + OADC (5 mg/mL albumin)
[15] = M. abscessus (n = 20), read-out: MIC90
[16] = M. chelonae (n = 11), read-out: MIC90
[17] = M. abscessus 21, 7H9 + OADC (5 mg/mL albumin)
[18] = Other NTM (n = 12), read-out: MIC90

With `NCC[C@H](O)C(=O)N[C@@H]1C[C@H](N)[C@@H](O[C@H]2O[C@H](CN)[C@@H](O)[C@H](O)[C@H]2O)[C@H](O)[C@H]1O[C@H]1O[C@H](CO)[C@@H](O)[C@H](N)[C@H]1O` [Amikacin, reference compound] the MIC (M. abscessus 1; [11]) was 16 µg/mL, the MIC (M. abscessus 1; M. abscessus 1, MHB) was 8 µg/mL (≈ 13.7 µM) and the “FIC Index” value [1, 12] was 1. For the same compound, the “Interpretation of checkerboard synergy testing” value (“Interpretation” below) [1] was “additive”, the MIC range ([2]; M. fortuitum (n = 11)) was 0.5 to 4 µg/mL and the MIC90 [2, 13] was 2 µg/mL (≈ 3.42 µM). For the same compound, the MIC (M. abscessus 79; [14]) was 4 µg/mL, the MIC (M. abscessus 79; M. abscessus 79, MHB) was 2 µg/mL (≈ 3.42 µM) and the MIC90 [3, 15] was 16 µg/mL (≈ 27.3 µM). The MIC90 [4, 16] was > 16 µg/mL, the MIC (M. abscessus 21; [17]) was 4 µg/mL and the MIC (M. abscessus 21; M. abscessus 21, MHB) was 2 µg/mL (≈ 3.42 µM). For the same compound, the MIC range (Other NTM (n = 12); Other NTM (n = 12)) was 0.5 to 16 µg/mL and the MIC90 (Other NTM (n = 12); [18]) was 16 µg/mL (≈ 27.3 µM).
With `CC[C@H]1OC(=O)[C@H](C)[C@@H](O[C@H]2C[C@@](C)(OC)[C@@H](O)[C@H](C)O2)[C@H](C)[C@@H](O[C@@H]2O[C@H](C)C[C@H](N(C)C)[C@H]2O)[C@](C)(O)C[C@@H](C)CN(C)[C@H](C)[C@@H](O)[C@]1(C)O` [Azithromycin, reference compound] the “FIC Index” value [1, 12] was 1, the “Interpretation” value [1] was “additive” and the MIC90 [2, 13] was > 8 µg/mL. For the same compound, the MIC90 [3, 15] was > 8 µg/mL, the lung histology (Mabs 21; after 4 weeks of treatment) was “only minimal pathologic evidence of inflammatory infiltrates” and the “reduction of lung CFU compared to the untreated group” value (Mabs 21; oral gavage 100 mg/kg, 4 weeks) was 0.38 Log10 CFU. The MIC range ([4]; M. chelonae (n = 11)) was 0.12 to 0.5 µg/mL, the MIC90 [4, 16] was 0.5 µg/mL (≈ 0.668 µM) and the MIC90 (Other NTM (n = 12); [18]) was > 8 µg/mL.
With `COc1nc2ccc(Br)cc2cc1[C@@H](c1ccccc1)[C@@](O)(CCN(C)C)c1cccc2ccccc12` [Bedaquiline] the “FIC Index” value [1, 12] was 2, the “Interpretation” value [1] was “indifferent” and the “Interpretation” value ([1]; listed as bedaquiline) was “indifference”.
For `CC12CCCC(C(=O)Nc3nc4ccc(OC(F)(F)F)cc4s3)(CCC1)C2` [CRS400359], the MIC (M. intracellulare 1956) was 2 µg/mL, the MIC (M. chimaera 1502055) was 2 µg/mL and the MIC (M. chelonae 93) was 0.12 µg/mL (≈ 0.301 µM). It also gave an MIC (P. aeruginosa ATCC 35151) of 64 µg/mL (≈ 161 µM), an MIC (S. pneumoniae ATCC 49619) of 32 µg/mL (≈ 80.3 µM) and an MIC (M. abscessus 1; [11]) of 1 µg/mL. The MIC (M. abscessus 1; M. abscessus 1, MHB) was 0.06 µg/mL (≈ 0.151 µM), the MIC [5] was ≤ 0.06 µg/mL and the inhibition at 10 µM (CYP3A) was 0%. The inhibition at 10 µM (CYP2B6) was 30%, the MIC [6] was 0.5 µg/mL (≈ 1.25 µM) and the MIC [7] was 0.12 µg/mL (≈ 0.301 µM). For the same compound, the MIC (M. abscessus ATCC 19977) was ≤ 0.06 µg/mL, the MIC [8] was > 64 µg/mL and the MIC (M. avium 101) was 2 µg/mL. It also gave an MIC range ([2]; M. fortuitum (n = 11)) of 0.06 to 1 µg/mL, an MIC90 [2] of 1 µg/mL (≈ 2.51 µM) and an MIC (M. abscessus 79; [14]) of 0.25 µg/mL. The MIC (M. abscessus 79; M. abscessus 79, MHB) was 0.06 µg/mL (≈ 0.151 µM), the MIC range ([3]; M. abscessus (n = 20)) was 0.06 to 2 µg/mL and the MIC90 [3] was 0.25 µg/mL (≈ 0.627 µM). The solubility at 24 h (physchem) was < 3 µM, the MIC (C. albicans ATCC 10231) was 64 µg/mL (≈ 161 µM) and the MIC (S. pyogenes ATCC 19615) was > 64 µg/mL. The MIC range ([4]; M. chelonae (n = 11)) was 0.25 to 0.5 µg/mL, the MIC90 [4] was 0.25 µg/mL (≈ 0.627 µM) and the IC50 at 72 h (HepG2 cytotoxicity, 72 h) was 10 µM. For the same compound, the IC50 at 72 h (HepG2 cytotoxicity, 72 h; value in brackets) was 4 µg/mL, the “Protein (serum) binding” value [9] was >95% and the MIC [10] was > 64 µg/mL. For the same compound, the MIC (M. abscessus 21; [17]) was 2 µg/mL, the MIC (M. abscessus 21; M. abscessus 21, MHB) was 0.06 µg/mL (≈ 0.151 µM) and the MIC90 (Other NTM (n = 12)) was 0.5 µg/mL (≈ 1.25 µM). For the same compound, the MIC range (Other NTM (n = 12); Other NTM (n = 12)) was 0.12 to 2 µg/mL, the MIC (E. faecalis ATCC 29212) was > 64 µg/mL and the MIC (S. aureus ATCC 29213) was > 64 µg/mL. For the same compound, the MIC (M. fortuitum 41) was 0.12 µg/mL (≈ 0.301 µM).
With `CO[C@@]1(NC(=O)Cc2cccs2)C(=O)N2C(C(=O)O)=C(COC(N)=O)CS[C@@H]21` [Cefoxitin] the “FIC Index” value [1, 12] was 0.56 and the “Interpretation” value [1] was “additive”.
For `CC(C)/N=c1\cc2n(-c3ccc(Cl)cc3)c3ccccc3nc-2cc1Nc1ccc(Cl)cc1` [Clofazimine], the “FIC Index” value [1, 12] was 0.52 and the “Interpretation” value [1] was “additive”.
For `C[C@H]1c2cccc(O)c2C(=O)C2=C(O)[C@]3(O)C(=O)C(C(N)=O)=C(O)[C@@H](N(C)C)[C@@H]3[C@@H](O)[C@@H]21` [Doxycycline], the “FIC Index” value [1, 12] was 2, the “Interpretation” value [1] was “indifferent” and the “Interpretation” value ([1]; listed as doxycycline) was “indifference”.
In the case of `CC(=O)NC[C@H]1CN(c2ccc(N3CCOCC3)c(F)c2)C(=O)O1` [Linezolid, reference compound], the “FIC Index” value [1] is reported as 0.56, the MIC90 [2, 13] is reported as > 8 µg/mL and the MIC90 [3, 15] is reported as > 8 µg/mL. For the same compound, the MIC range ([4]; M. chelonae (n = 11)) was 1 to 8 µg/mL, the MIC90 [4, 16] was 8 µg/mL (≈ 23.7 µM) and the MIC90 (Other NTM (n = 12); [18]) was > 8 µg/mL.
In the case of `Cc1cc(NS(=O)(=O)c2ccc(N)cc2)no1` [Sulfamethoxazole], the “FIC Index” value [1] is reported as 0.56.
In the case of `NC[C@H]1O[C@H](O[C@H]2[C@H](O)[C@@H](O[C@H]3O[C@H](CO)[C@@H](O)[C@H](N)[C@H]3O)[C@H](N)C[C@@H]2N)[C@H](N)C[C@@H]1O` [Tobramycin], the “FIC Index” value [1, 12] is reported as 0.75 and the “Interpretation” value [1] is reported as “additive”.
